# Measurements: paper PMC11356900, “Synthesis, Structural Properties and Biological Activities of Novel Hydrazones of 2-, 3-, 4-Iodobenzoic Acid” (Molecules, 2024)
# Assays:
# A549 cell line = assay: MTT cytotoxicity assay; assay type: cell-based
# Procedure: (§1) Among all the newly synthesized compounds, four compounds designated as: 14, 20, 21 and 27 were selected for further testing of their cytotoxic properties at the doses of 10, 25, 50, 75 and 100 µM. The cytotoxic properties of the above compounds were tested on the cancer cell lines, i.e., A549 (ECACC 86012804) (non-small-cell lung cancer), T47D (ECACC 85102201) (breast cancer), HeLa (ATCC® CCL-2™) (cervical cancer) and normal line L929 (NCTC clone 929, ATCC® CCL-1™) (mouse fibroblasts) using the MTT test for 24- and 48 h cultures.
# (§2) A549 (ECACC 86012804) (non-small-cell lung cancer) and T47D (ECACC 85102201) (breast cancer) were obtained from ECACC and propagated in Dulbecco’s Minimal Essential Medium, supplemented with 2 mM of glutamine, antibiotics ([…] streptomycin, 1% of 100 U/L penicillin) and 10% Fetal Bovine Serum. HeLa (ATCC® CCL-2™) (cervical cancer) and L929 (NCTC clone 929, ATCC® CCL-1™) (mouse fibroblasts) cell lines were obtained from ATCC and propagated in the Eagle Minimal Essential Medium supplemented with antibiotics ([…] streptomycin, 1% of 100 U/L penicillin) and with 10% and 5% FBS, respectively. The cell line was routinely grown in 75 cm^2 tissue culture flasks and kept in an incubator (humidified atmosphere of 5% CO2 at 37 °C). All examined cell lines were tested against mycoplasma contamination with microbiological assays.
# (§3) The cell viability of tested compounds (14, 20, 21 and 27) was assessed by the MTT assay. In brief, the exponentially growing cells were plated in 100 μL/well in 96-well plates. After 24 h culturing, the cells were treated with different concentrations of compounds (range 10–100 μM). After 24 and 48 h of incubation, 10 μL of 5 mg/mL MTT was added to each well and the plates were incubated at 37 °C for additional 4 h. The medium was subsequently removed, the purple-colored precipitates of formazan were dissolved in 100 μL of DMSO. The color absorbance was recorded at 570 nm using a BioTek model EPOCH ELISA plate reader. All experiments were performed in triplicate. The absorbance values were in the range of linearity of the Lambert–Beer law.
# HeLa cell line = assay: MTT cytotoxicity assay; assay type: cell-based
# Procedure: as §1, §2, §3
# T47D cell line = assay: MTT cytotoxicity assay; assay type: cell-based
# Procedure: as §1, §2, §3
# [1] = test system: Staphylococcus aureus ATCC 29213; assay: Broth microdilution MIC/MBC; settings: ATCC29213
# [2] = test system: Staphylococcus aureus ATCC 43300; assay: Broth microdilution MIC/MBC; settings: ATCC43300 / MRSA
# [3] = test system: Staphylococcus epidermidis ATCC 12228; assay: Broth microdilution MIC/MBC; settings: ATCC12228
# [4] = test system: Micrococcus luteus ATCC 10240; assay: Broth microdilution MIC/MBC; settings: Micrococcus luteus, ATCC10240
# [5] = test system: Klebsiella pneumoniae ATCC 13883; assay: Broth microdilution MIC/MBC; settings: ATCC13883
# [6] = test system: Escherichia coli ATCC 25922; assay: Broth microdilution MIC/MBC; settings: ATCC25922
# [7] = test system: Pseudomonas aeruginosa ATCC 9027; assay: Broth microdilution MIC/MBC; settings: ATCC9027
smiles,measurement,setting,value
"O=C(N/N=C/c1cc(Cl)cc(I)c1O)c1cccc(I)c1 [Compound 20, N-[(5-chloro-2-hydroxy-3-iodophenyl)methylidene]-3-iodobenzohydrazide]",cell proliferation,"A549 cell line; A549, 24h, 10 µM, Repeat No 1",87%
same,cell proliferation,"A549 cell line; A549, 24h, 10 µM, Repeat No 2",92%
same,cell proliferation,"A549 cell line; A549, 24h, 25 µM, Repeat No 1",83%
same,cell proliferation,"A549 cell line; A549, 24h, 25 µM, Repeat No 2",91%
same,cell proliferation,"A549 cell line; A549, 24h, 50 µM, Repeat No 1",83%
same,cell proliferation,"A549 cell line; A549, 24h, 50 µM, Repeat No 2",87%
same,cell proliferation,"A549 cell line; A549, 24h, 75 µM, Repeat No 1",91%
same,cell proliferation,"A549 cell line; A549, 24h, 75 µM, Repeat No 2",95%
same,cell proliferation,"A549 cell line; A549, 24h, 100 µM, Repeat No 1",90%
same,cell proliferation,"A549 cell line; A549, 24h, 100 µM, Repeat No 2",93%
same,cell proliferation,"A549 cell line; A549, 48h, 10 µM, Repeat No 1",88%
same,cell proliferation,"A549 cell line; A549, 48h, 10 µM, Repeat No 2",84%
same,cell proliferation,"A549 cell line; A549, 48h, 25 µM, Repeat No 1",79%
same,cell proliferation,"A549 cell line; A549, 48h, 25 µM, Repeat No 2",83%
same,cell proliferation,"A549 cell line; A549, 48h, 50 µM, Repeat No 1",88%
same,cell proliferation,"A549 cell line; A549, 48h, 50 µM, Repeat No 2",92%
same,cell proliferation,"A549 cell line; A549, 48h, 75 µM, Repeat No 1",99%
same,cell proliferation,"A549 cell line; A549, 48h, 75 µM, Repeat No 2",95%
same,cell proliferation,"A549 cell line; A549, 48h, 100 µM, Repeat No 1",91%
same,cell proliferation,"A549 cell line; A549, 48h, 100 µM, Repeat No 2",93%
same,cell proliferation,"HeLa cell line; 24h, 10 µM, Repeat No 1",87%
same,cell proliferation,"HeLa cell line; 24h, 10 µM, Repeat No 2",92%
same,cell proliferation,"HeLa cell line; 24h, 25 µM, Repeat No 1",81%
same,cell proliferation,"HeLa cell line; 24h, 25 µM, Repeat No 2",88%
same,cell proliferation,"HeLa cell line; 24h, 50 µM, Repeat No 1",78%
same,cell proliferation,"HeLa cell line; 24h, 50 µM, Repeat No 2",83%
same,cell proliferation,"HeLa cell line; 24h, 75 µM, Repeat No 1",85%
same,cell proliferation,"HeLa cell line; 24h, 75 µM, Repeat No 2",91%
same,cell proliferation,"HeLa cell line; 24h, 100 µM, Repeat No 1",81%
same,cell proliferation,"HeLa cell line; 24h, 100 µM, Repeat No 2",79%
same,cell proliferation,"HeLa cell line; 48h, 10 µM, Repeat No 1",88%
same,cell proliferation,"HeLa cell line; 48h, 10 µM, Repeat No 2",91%
same,cell proliferation,"HeLa cell line; 48h, 25 µM, Repeat No 1",73%
same,cell proliferation,"HeLa cell line; 48h, 25 µM, Repeat No 2",75%
same,cell proliferation,"HeLa cell line; 48h, 50 µM, Repeat No 1",87%
same,cell proliferation,"HeLa cell line; 48h, 50 µM, Repeat No 2",91%
same,cell proliferation,"HeLa cell line; 48h, 75 µM, Repeat No 1",99%
same,cell proliferation,"HeLa cell line; 48h, 75 µM, Repeat No 2",96%
same,cell proliferation,"HeLa cell line; 48h, 100 µM, Repeat No 1",93%
same,cell proliferation,"HeLa cell line; 48h, 100 µM, Repeat No 2",94%
same,cell proliferation,"T47D cell line; 24h, 10 µM, Repeat No 1",78%
same,cell proliferation,"T47D cell line; 24h, 10 µM, Repeat No 2",81%
same,cell proliferation,"T47D cell line; 24h, 25 µM, Repeat No 1",76%
same,cell proliferation,"T47D cell line; 24h, 25 µM, Repeat No 2",72%
same,cell proliferation,"T47D cell line; 24h, 50 µM, Repeat No 1",77%
same,cell proliferation,"T47D cell line; 24h, 50 µM, Repeat No 2",69%
same,cell proliferation,"T47D cell line; 24h, 75 µM, Repeat No 1",77%
same,cell proliferation,"T47D cell line; 24h, 75 µM, Repeat No 2",73%
same,cell proliferation,"T47D cell line; 24h, 100 µM, Repeat No 1",87%
same,cell proliferation,"T47D cell line; 24h, 100 µM, Repeat No 2",82%
same,cell proliferation,"T47D cell line; 48h, 10 µM, Repeat No 1",80%
same,cell proliferation,"T47D cell line; 48h, 10 µM, Repeat No 2",78%
same,cell proliferation,"T47D cell line; 48h, 25 µM, Repeat No 1",79%
same,cell proliferation,"T47D cell line; 48h, 25 µM, Repeat No 2",75%
same,cell proliferation,"T47D cell line; 48h, 50 µM, Repeat No 1",76%
same,cell proliferation,"T47D cell line; 48h, 50 µM, Repeat No 2",73%
same,cell proliferation,"T47D cell line; 48h, 75 µM, Repeat No 1",83%
same,cell proliferation,"T47D cell line; 48h, 75 µM, Repeat No 2",86%
same,cell proliferation,"T47D cell line; 48h, 100 µM, Repeat No 1",81%
same,cell proliferation,"T47D cell line; 48h, 100 µM, Repeat No 2",79%
same,melting point,,205 to 208 °C
same,MBC,[1],3.91 µg/mL
same,MIC,[1],3.91 µg/mL
same,MBC,[2],7.81 µg/mL
same,MIC,[2],3.91 µg/mL
same,MBC,[3],7.81 µg/mL
same,MIC,[3],1.95 µg/mL
same,MBC,[4],7.81 µg/mL
same,MIC,[4],1.95 µg/mL
same,MBC,[5],> 1000 µg/mL
same,MBC/MIC,[5],> 2
same,MIC,[5],500 µg/mL
same,MBC,[6],> 1000 µg/mL
same,MBC/MIC,[6],> 1
same,MIC,[6],1000 µg/mL
same,MBC,[7],> 1000 µg/mL
same,MBC/MIC,[7],> 2
same,MIC,[7],500 µg/mL
